Source: paper PMC2800117, “The hemolytic and cytolytic activities of Serratia marcescens phospholipase A (PhlA) depend on lysophospholipid production by PhlA” (BMC Microbiology, 2009)

Biological target: T1, Phospholipase A2 derived from bovine pancreas (PLA2) (Bos taurus, UniProt P00593)
T1 construct: gene PLA2G1B; commercial native enzyme from bovine pancreas (Sigma)
Assay: fluorescence enhancement (BODIPY FL release, […] nm)
Assay type: biochemical
Conditions: 10 mM Tris-HCl pH 8.0, 100 mM NaCl, 10 mM CaCl2, 45 nM substrate, 6 min; labelled compound; enzyme used as control

T1 sequence (P00593 23-145): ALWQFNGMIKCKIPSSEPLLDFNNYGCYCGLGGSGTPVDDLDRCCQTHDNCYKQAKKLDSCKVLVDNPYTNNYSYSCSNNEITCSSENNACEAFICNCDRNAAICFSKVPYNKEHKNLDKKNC

CC1=CC(C)=[N+]2C1=Cc1ccc(CCCCCCCCCCC(=O)OC[C@H](COP(=O)([O-])OCC[N+](C)(C)C)OC(=O)CCCCCCCCCCc3ccc4n3[B-](F)(F)[N+]3=C(C)C=C(C)C3=C4)n1[B-]2(F)F [bis-BODIPY FL C11-PC]
fluorescence enhancement (BODIPY FL release, 485/530 nm): S. marcescens PhlA and bovine pancreatic PLA2 released fluorescent fatty acids from bis-BODIPY FLC11-PC
